In patent US20250325528A1, “[…] ROLE OF mTORC1 INHIBITION OF NON-TUMOR CELLS” (THE BOARD OF REGENTS OF THE UNIVERSITY OF TEXAS SYSTEM, priority 2024, published 2025):

Legend:
XP144 TGs = experiment: Tumorgraft growth in different hosts, mixed-model analysis, XP144; assay type: in vivo, mice
Method: (§1) Tumor samples were collected from patients under IRB-approved protocol as previously described. 6-to-8-week-old NOD/SCID mice originally obtained from the UT Southwestern Breeding Core were implanted subcutaneously with patient-derived TGs. Calipers were used to measure tumor dimensions. Volume was calculated by multiplying width, length, and height, thereby minimizing the potential bias of disproportionately weighing one particular dimension (at the cost of overestimating tumor volumes). […] Tumors were measured weekly. As indicated, vehicle-treated tumors and rapamycin-sensitive tumors were harvested around 28 days. […] In accordance with UT Southwestern Institutional Animal Care and Use Committee policies, animals were euthanized once tumor diameters were larger than 2 cm.
(§2) Bar charts and series plots are presented as the mean±standard error of the mean (SEM) from more than three independent experiments. Unless otherwise indicated, the statistical significance was determined by t-test using GraphPad Prism. For each XP line, ANOVA with post-hoc t-tests were used to test for differential (phospho)protein levels between the three arms in the RPPA analysis (vehicle-treated, rapamycin-sensitive, and rapamycin-resistant) with FDR-adjusted P-values. For the mixed model analysis, data were summarized as mean tumor growth per day with 95% confidence intervals, as well as by fold change between groups. A positive fold change indicates increased tumor growth rates in the first group compared to the second. Estimates were obtained from a three-way factorial mixed model analysis for treatment group, mouse type, and day of measurement. Baseline volume was also included as a term in the model to control for differences in starting volumes. An autoregressive (AR-1) covariance structure was used to account for the correlation among repeated measurements for each mouse. ANOVA and mixed model analyses were completed using SAS 9.4. A P-value <0.05 was considered significant.
(§3) XP144, XP164 and XP490 were then implanted into NOD/SCID^mTOR-ST mice.
(§4) The mTOR-ST mutation had the least effect on XP490. […] In Table 4, data are summarized with mean tumor growth rates per day (95% confidence intervals) with fold change between the two groups. A positive fold change indicates increased tumor growth rates in the first group. mTOR-WT, wild type mice; mTORST, heterozygous mTOR-ST mice; mTORST/ST, homozygous mTOR-ST mice. Rapa, rapamycin-treatment; Veh, vehicle-treatment

XP164 TGs = experiment: Tumorgraft growth in different hosts, mixed-model analysis, XP164; assay type: in vivo, mice
Method: as §1, §2, §3, §4

XP490 TGs = experiment: Tumorgraft growth in different hosts, mixed-model analysis, XP490; assay type: in vivo, mice
Method: as §1, with “weekly.” for “weekly. As indicated, vehicle-treated tumors and rapamycin-sensitive tumors were harvested around 28 days.”
as §2, with “For each XP line, ANOVA with post-hoc t-tests were used to test for differential (phospho)protein levels between the three arms in the RPPA analysis (vehicle-treated, rapamycin-sensitive, and rapamycin-resistant) with FDR-adjusted P-values.” left out
as §3
A positive fold change indicates increased tumor growth rates in the first group. mTOR-WT, wild type mice; mTORST, heterozygous mTOR-ST mice; mTORST/ST, homozygous mTOR-ST mice.

[1] = following temsirolimus administration in patients; cited from earlier work

SMILES: CO[C@H]1C[C@@H]2CC[C@@H](C)[C@@](O)(O2)C(=O)C(=O)N2CCCC[C@H]2C(=O)O[C@H]([C@H](C)C[C@@H]2CC[C@@H](O)[C@H](OC)C2)CC(=O)[C@H](C)/C=C(\C)[C@@H](O)[C@@H](OC)C(=O)[C@H](C)C[C@H](C)/C=C/C=C/C=C/1C [rapamycin]
- effect on tumor growth (XP144 TGs; XP144, NOD/SCID^mTOR-ST mice): no significant effect
- Mean tumor growth per day (95% CI) (XP144 TGs; XP144, mTOR^ST (heterozygous) mice): 54.6 (36.8, 72.4) vs.
- Mean tumor growth per day (95% CI) (XP144 TGs; XP144, mTOR^WT mice, rapamycin 0.5 mg/kg IP every 48 hours): 20.4 (10.5, 30.3) vs.
- reduction of tumor growth (XP144 TGs; XP144, wild-type mice, vs vehicle): 1.5 fold
- effect on tumor growth (XP164 TGs; XP164, NOD/SCID^mTOR-ST mice): no significant effect
- Mean tumor growth per day (95% CI) (XP164 TGs; XP164, mTOR^ST (heterozygous) mice): 67.6 (57.2, 78.0) vs.
- Mean tumor growth per day (95% CI) (XP164 TGs; XP164, mTOR^ST/ST (homozygous) mice): 69.5 (58.5, 80.6) vs.
- Mean tumor growth per day (95% CI) (XP164 TGs; XP164, mTOR^WT mice): 18.3 (12.6, 24.0) vs.
- delay of tumor growth (XP164 TGs; XP164, wild-type mice, vs vehicle): 3.7 fold
- inhibition of tumor growth (XP490 TGs; XP490, mTOR-ST homozygous mice): 2 fold
- Mean tumor growth per day (95% CI) (XP490 TGs; XP490, mTOR^ST (heterozygous) mice): 15.0 (11.7, 18.3) vs.
- Mean tumor growth per day (95% CI) (XP490 TGs; XP490, mTOR^WT mice): 5.1 (1.1, 9.1) vs.
- inhibition of tumor growth (XP490 TGs; XP490, mice with the resistance mutation (heterozygous mTOR-ST)): 6 fold
- reduction of tumor growth (XP490 TGs; XP490, wild-type mice, vs vehicle): 11 fold
- reduction of tumor growth inhibition in the resistant host (XP490 TGs; third TG line, resistant host vs wild type): ≤ 5 fold
- share of the circulating drug [1]: 70%
